# From ChEMBL document CHEMBL1136152, “Synthesis and antioxidant efficiency of a new amphiphilic spin-trap derived from PBN and lipoic acid” (Bioorg Med Chem Lett, 2003)
# How the values were obtained:
# Type in all cases: functional
# [1] = In vitro half-hemolysis time at the concentration of 100 uM
# [2] = In vitro half-hemolysis time at the concentration of 200 uM
# [3] = In vitro half-hemolysis time at the concentration of 500 uM
# [4] = In vitro half-hemolysis time at the concentration of 50 uM
# [5] = In vitro half-hemolysis time at the concentration of 100 uM with LAMPBN to LGT molar ratio = 0.67/1.33
# [6] = In vitro half-hemolysis time at the concentration of 100 uM with LAMPBN to LGT molar ratio = 1.33/0.67
# [7] = In vitro half-hemolysis time at the concentration of 100 uM with LAMPBN to LGT molar ratio = 1/1
# [8] = In vitro half-hemolysis time at the concentration of 200 uM with LAMPBN to LGT molar ratio = 0.67/1.33
# [9] = In vitro half-hemolysis time at the concentration of 200 uM with LAMPBN to LGT molar ratio = 1.33/0.67
# [10] = In vitro half-hemolysis time at the concentration of 200 uM with LAMPBN to LGT molar ratio = 1/1
# [11] = In vitro half-hemolysis time at the concentration of 500 uM with LAMPBN to LGT molar ratio = 0.67/1.33
# [12] = In vitro half-hemolysis time at the concentration of 500 uM with LAMPBN to LGT molar ratio = 1.33/0.67
# [13] = In vitro half-hemolysis time at the concentration of 500 uM with LAMPBN to LGT molar ratio = 1/1
# [14] = In vitro half-hemolysis time at the concentration of 50 uM with LAMPBN to LGT molar ratio = 0.67/1.33
# [15] = In vitro half-hemolysis time at the concentration of 50 uM with LAMPBN to LGT molar ratio = 1.33/0.67
# [16] = In vitro half-hemolysis time at the concentration of 50 uM with LAMPBN to LGT molar ratio = 1/1
Compound,HT50 [1] [%],HT50 [2] [%],HT50 [3] [%],HT50 [4] [%],HT50 [5] [%],HT50 [6] [%],HT50 [7] [%],HT50 [8] [%],HT50 [9] [%],HT50 [10] [%],HT50 [11] [%],HT50 [12] [%],HT50 [13] [%],HT50 [14] [%],HT50 [15] [%],HT50 [16] [%]
CC(C)(COC(=O)NCCCNC(=O)CCCCC1CCSS1)/[N+]([O-])=C/c1ccc(CNC(=O)[C@H](O)[C@@H](O)[C@H](O[C@@H]2O[C@@H](CO)[C@H](O)[C@H](O)[C@@H]2O)[C@H](O)CO)cc1 (stereo partly specified),82.9,135,167,49,–,–,–,–,–,–,–,–,–,–,–,–
CC(C)(C)/[N+]([O-])=C/c1ccc(CNC(=O)[C@H](O)[C@@H](O)C(O[C@@H]2O[C@@H](CO)[C@H](O)[C@H](O)[C@@H]2O)[C@H](O)CO)cc1.O=C(CCCCC1CCSS1)NCC(=O)NC(CO)(CO)CO (stereo partly specified),–,–,–,–,60.8,47.4,51.6,62,49.8,53.7,88.6,86.3,86.5,56.6,41.5,44.6
